The results in this text go back to PMC2217334 (The Journal of General Physiology, 2003).

For this experiment, the target named is human cardiac Na+ channel alpha subunit (SCN5A, hH1) (Homo sapiens, UniProt Q14524). As to the kind of experiment: whole-cell patch clamp, use-dependent block at […] external. The experiment is classed as cell-based. The settings on record: read-out: % use-dependent block at 10 μM. For orientation: Patch clamp records ionic current or voltage across a cell membrane.
Sequence of human cardiac Na+ channel alpha subunit (SCN5A, hH1) (Q14524 whole entry): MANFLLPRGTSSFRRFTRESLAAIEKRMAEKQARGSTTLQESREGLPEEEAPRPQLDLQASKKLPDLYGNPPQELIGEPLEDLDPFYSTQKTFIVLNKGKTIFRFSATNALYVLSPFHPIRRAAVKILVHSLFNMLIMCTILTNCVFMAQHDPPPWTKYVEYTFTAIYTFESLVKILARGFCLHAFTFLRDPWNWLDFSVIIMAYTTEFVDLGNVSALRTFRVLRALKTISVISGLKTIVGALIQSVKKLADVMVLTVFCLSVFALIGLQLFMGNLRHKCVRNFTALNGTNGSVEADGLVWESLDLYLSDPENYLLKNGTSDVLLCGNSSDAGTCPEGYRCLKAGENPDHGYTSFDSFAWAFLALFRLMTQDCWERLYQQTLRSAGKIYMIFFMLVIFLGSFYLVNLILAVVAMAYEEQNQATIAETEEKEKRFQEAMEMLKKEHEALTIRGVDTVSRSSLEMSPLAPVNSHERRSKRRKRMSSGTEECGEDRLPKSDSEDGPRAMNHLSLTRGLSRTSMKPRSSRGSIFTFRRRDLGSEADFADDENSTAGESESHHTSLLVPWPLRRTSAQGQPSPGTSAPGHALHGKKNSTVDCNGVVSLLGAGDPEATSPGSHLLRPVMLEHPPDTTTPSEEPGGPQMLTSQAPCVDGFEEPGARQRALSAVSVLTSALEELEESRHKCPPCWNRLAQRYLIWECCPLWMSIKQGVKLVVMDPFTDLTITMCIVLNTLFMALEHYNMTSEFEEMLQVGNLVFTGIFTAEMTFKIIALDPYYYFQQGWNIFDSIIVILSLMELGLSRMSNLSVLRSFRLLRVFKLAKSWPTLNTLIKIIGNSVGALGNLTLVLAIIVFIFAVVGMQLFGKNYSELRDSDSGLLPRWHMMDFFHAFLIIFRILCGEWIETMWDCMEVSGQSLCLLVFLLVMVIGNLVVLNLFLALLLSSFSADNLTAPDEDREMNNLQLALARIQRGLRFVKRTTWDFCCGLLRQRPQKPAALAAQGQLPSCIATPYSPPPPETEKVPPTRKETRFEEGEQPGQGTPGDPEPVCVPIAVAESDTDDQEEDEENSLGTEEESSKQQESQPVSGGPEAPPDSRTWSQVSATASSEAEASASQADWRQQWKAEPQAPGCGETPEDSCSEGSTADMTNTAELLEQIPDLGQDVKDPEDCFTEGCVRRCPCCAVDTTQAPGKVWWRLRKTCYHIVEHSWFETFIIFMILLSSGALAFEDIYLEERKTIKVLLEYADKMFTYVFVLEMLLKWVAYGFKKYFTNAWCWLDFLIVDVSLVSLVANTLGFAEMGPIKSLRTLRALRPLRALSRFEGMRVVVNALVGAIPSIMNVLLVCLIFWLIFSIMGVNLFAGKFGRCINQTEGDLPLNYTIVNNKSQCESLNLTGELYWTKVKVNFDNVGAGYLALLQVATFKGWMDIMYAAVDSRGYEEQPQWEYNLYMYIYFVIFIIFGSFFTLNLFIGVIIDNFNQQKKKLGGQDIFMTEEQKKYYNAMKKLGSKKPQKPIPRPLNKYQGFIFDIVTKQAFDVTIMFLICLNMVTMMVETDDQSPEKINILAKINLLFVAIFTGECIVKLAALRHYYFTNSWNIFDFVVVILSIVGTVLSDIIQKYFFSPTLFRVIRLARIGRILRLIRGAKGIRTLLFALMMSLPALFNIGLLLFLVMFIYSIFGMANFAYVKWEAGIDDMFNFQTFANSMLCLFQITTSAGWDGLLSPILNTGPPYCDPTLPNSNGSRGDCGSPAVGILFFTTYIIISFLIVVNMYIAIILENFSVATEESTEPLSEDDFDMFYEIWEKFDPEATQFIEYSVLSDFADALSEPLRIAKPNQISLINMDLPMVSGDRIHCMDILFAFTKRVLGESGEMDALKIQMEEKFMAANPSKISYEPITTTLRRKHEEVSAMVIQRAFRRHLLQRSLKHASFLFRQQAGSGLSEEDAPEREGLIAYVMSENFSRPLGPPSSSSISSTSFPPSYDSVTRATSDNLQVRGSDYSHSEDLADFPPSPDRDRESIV
Sequence of human cardiac Na+ channel alpha subunit (SCN5A, hH1) (Q07699 19-218 partner): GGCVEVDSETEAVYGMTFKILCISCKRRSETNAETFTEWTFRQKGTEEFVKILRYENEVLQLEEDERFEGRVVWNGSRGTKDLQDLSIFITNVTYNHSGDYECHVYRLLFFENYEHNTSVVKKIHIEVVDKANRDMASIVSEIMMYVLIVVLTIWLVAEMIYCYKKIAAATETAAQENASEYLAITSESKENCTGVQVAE

Turning to `O=C(NCC1CCCCN1)c1cc(OCC(F)(F)F)ccc1OCC(F)(F)F` (stereo not shown) [flecainide], the inhibition at 10 µM turned out to be 67.3 ± 3.5%.
